Test results taken from patent EP3928779A1 (Chugai Seiyaku Kabushiki Kaisha, priority 2014, dated 2016).

system: rat small-intestinal brush border membrane vesicles; experiment: Inhibitory effect on 33PO4 uptake into rat small-intestinal brush border membrane vesicles (rapid filtration method); type: biochemical; conditions: 33PO4 uptake into rat small-intestinal BBMVs; test compound 1 µM; reacted for 60 seconds
How it was run: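 Uptake of ^33PO4 was measured by rapid filtration and liquid scintillation counting of filter-retained vesicles, after quenching with ice-cold 110 mM NaCl/1 mM KH2PO4/10 mM HEPES pH 7.5. Vesicles were brush border membranes from the upper small intestine of female Wistar rats aged 4–5 weeks.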

Compound | Rate of uptake inhibition (%) (1 µM)
COCC(C)(C)N(C)CCOc1ccc(CN2C(=O)C(C(=O)Nc3ccc(C(F)(F)F)cc3-c3cc(C(F)(F)F)ncn3)=C(O)C3(CCCC3)N2C)c(F)c1F [Example 372] | 38
C[C@]12CCCN1N(Cc1cccc(F)c1F)C(=O)C(C(=O)Nc1ccc(C(F)(F)F)cc1-c1ccc(C(F)(F)F)nc1Br)=C2O [Example 85] | 71
CSc1ccc(-c2cc(C(F)(F)F)ccc2NC(=O)C2=C(O)C(C)(C)N(C)N(Cc3cccc(F)c3F)C2=O)cn1 [Example 310] | 63
CCOC(=O)CCCCCCN1C(=O)C(C(=O)Nc2ccc(C(F)(F)F)cc2-c2ccc(C(F)(F)F)nc2)=C(O)[C@@]2(C)CCCN12 [Example 235, Ethyl 7-[(4aR)-4-hydroxy-4a-methyl-2-oxo-3-[[4-(trinuoromethyl)-2-[6-(trifluoromethyl)pyridin-3-yl]phenyl]carbamoyl]-6,7-dihydro-5H-pyrrolo[1,2-b]pyridazin-1-yl]heptanoate] | 65
CN1N(Cc2ccc(OCCN3[C@@H]4COC[C@H]3C4)c(F)c2F)C(=O)C(C(=O)Nc2ccc(C(F)(F)F)cc2-c2cc(C(F)(F)F)ncn2)=C(O)C12CCC2 [Example 339] | 66
Cc1cc(-c2cc(C(F)(F)F)ccc2NC(=O)C2=C(O)[C@@]3(C)CCCN3N(Cc3cccc(F)c3F)C2=O)cnc1C#N [Example 101] | 57
1-[(2,3-Difluorophenyl)methyl]-4a-ethyl-4-hydroxy-N-[5-methyl-2-(trifluoromethyl)furan-3-yl]-2-oxo-5,6,7,8-tetrahydropyrido[1,2-b]pyridazine-3-carboxamide [Example 19] | 41
Cc1cc(NC(=O)C2=C(O)[C@@H]3CCCN3N(Cc3cccc(F)c3)C2=O)c(C(F)(F)F)o1 [Example 1, (4aS)-1-[(3-Fluorophenyl)methyl]-4-hydroxy-N-[5-methyl-2-(trifluoromethyl)furan-3-yl]-2-oxo-4a,5,6,7-tetrahydropyrrolo[1,2-b]pyridazine-3-carboxamide] | 28
C[C@]12CCCN1N(Cc1ccc(CCCOCCCO)c(F)c1F)C(=O)C(C(=O)Nc1ccc(C(F)(F)F)cc1-c1ccc(C(F)(F)F)nc1)=C2O [Example 141] | 83
CN1N(Cc2ccc(OCCCCCOC[C@H](O)CO)c(F)c2F)C(=O)C(C(=O)Nc2ccc(C(F)(F)F)cc2-c2ccc(C(F)(F)F)nc2)=C(O)C12CCC2 [Example 385] | 39
Cc1nc(NC(=O)C2=C(O)[C@H](C(C)(C)C)N(C)N(Cc3cccc(F)c3F)C2=O)ccc1Br [Example 241] | 86
Cc1c(-c2cc(C(F)(F)F)ccc2NC(=O)C2=C(O)C3(CCCC3)N(C)N(Cc3ccc(OCCN4CCOCC4)c(F)c3F)C2=O)ncnc1C(F)(F)F [Example 290] | 59
CC(=O)NCCN(C)CCOc1ccc(CN2C(=O)C(C(=O)Nc3ccc(C(F)(F)F)cc3-c3cc(C(F)(F)F)ncn3)=C(O)C3(CCC3)N2C)c(F)c1F [Example 353] | 26
C[C@]12CCCN1N(Cc1cc(F)c(F)c(F)c1)C(=O)C(C(=O)Nc1cc(F)c(Br)c(F)c1)=C2O [Example 197] | 82
CN(CCOc1ccc(CN2C(=O)C(C(=O)Nc3ccc(C(F)(F)F)cc3-c3cc(C(F)(F)F)ncn3)=C(O)C3(CCC3)N2C)c(F)c1F)C1CCOC1 (stereo not drawn) [Example 338, 6-[[2,3-Difluoro-4-[2-[methyl(oxolan-3-yl)amino]ethoxy]phenyl]methyl]-9-hydroxy-5-methyl-7-oxo-N-[4-(trifluoromethyl)-2-[6-(trifluoromethyl)pyrimidin-4-yl]phenyl]-5,6-diazaspiro[3.5]non-8-ene-8-carboxamide] | 66
